What was measured:
Type in all cases: in vivo
[1] = test system: Aedes aegypti (Yellow Fever Mosquito); experiment: whole plant or invertebrate; details: test rate 200 ppm, adult females, mortality assessed at 24 and 48 hours
Procedure: (§1) Test solutions, at an application rate of 200 ppm in ethanol, were applied to 12 well tissue culture plates. Once the deposits were dry, five, two to five day old adult female Aedes aegypti were added to each well, and sustained with a 10% sucrose solution in a cotton wool plug. Assessment of knockdown was made one hour after introduction, and mortality was assessed at 24 and 48 hours after introduction.

[2] = test system: Nilaparvata lugens (Brown Plant Hopper); experiment: Nilaparvata lugens larvicide, feeding/contact; details: 168 h, test rate 200 ppm, N3 nymphs on sprayed rice plants, 7 days after treatment, read-out: control in at least one of the two categories (mortality or growth inhibition)
Procedure: Rice plants were treated with the diluted test solutions in a spray chamber. After drying plants were infested with ˜20 N3 nymphs. 7 days after the treatment samples were assessed for mortality and growth inhibition.

[3] = test system: Euschistus heros (Neotropical Brown Stink Bug); experiment: Euschistus heros feeding/contact activity; details: 120 h, application rate 200 ppm, N2 nymphs on soybean leaves, 5 days after infestation, read-out: control in at least one of the two categories (mortality or growth inhibition)
Procedure: Soybean leaves on agar in 24-well microtiter plates were sprayed with aqueous test solutions prepared from 10,000 ppm DMSO stock solutions. After drying the leaves were infested with N2 nymphs. The samples were assessed for mortality and growth inhibition 5 days after infestation.

[4] = test system: Nilaparvata lugens (Brown Plant Hopper); experiment: Nilaparvata lugens larvicide, systemic into water; details: 168 h, test rate 12.5 ppm, into nutritive solution of rice plants, N3 nymphs, 7 days after infestation, read-out: control in at least one of the two categories (mortality or growth inhibition)
Procedure: Rice plants cultivated in a nutritive solution were treated with the diluted test solutions into nourishing cultivation system. 1 day after application plants were infested with ˜20 N3 nymphs. 7 days after infestation samples were assessed for mortality and growth inhibition.

[5] = test system: Carpocapsa (Cydia) Pomonella (Codling Moth); experiment: Carpocapsa (Cydia) pomonella larvicide, feeding/contact; details: 336 h, test rate 50 ppm, L1 larvae on diet cubes, 14 days after infestation, read-out: control in at least one of the two categories (mortality or growth inhibition)
Procedure: Diet cubes coated with paraffin were sprayed with diluted test solutions in an application chamber. After drying off the treated cubes (10 replicates) were infested with 1 L1 larvae. Samples were incubated at 26-27° C. and checked 14 days after infestation for mortality and growth inhibition.

[6] = test system: Plutella xylostella (Diamond Back Moth); experiment: Plutella xylostella feeding/contact activity, 96-well artificial diet; details: 216 h, application rate 500 ppm, 9 days after infestation
Procedure: 1, 2, 3, 4, 17, 19, 23, 26, 39, 41, 42, 54, 55, 56 Plutella xylostella (Diamond Back Moth):Feeding/Contact Activity 96-well microtiter plates containing artificial diet were treated with aqueous test solutions, prepared from 10,000 ppm DMSO stock solutions, by a liquid handling robot. After drying, eggs (˜30 per well) were infested onto a netted lid which was suspended above the diet. The eggs hatch and L1 larvae move down to the diet. The samples were assessed for mortality 9 days after infestation.

[7] = test system: Aphis craccivora (Black Bean Aphid); experiment: Aphis craccivora mixed population, systemic/feeding; details: 120 h, test rate 12.5 ppm, pea seedlings in test solutions, 5 days
Procedure: Pea seedlings infested with mixed aged aphid population, were put into glass vials with test solutions. 5 days later, samples were assessed for mortality.

[8] = test system: Diabrotica balteata (corn root worm); experiment: Diabrotica balteata (corn root worm), sprayed maize sprouts; details: 96 h, application rate 200 ppm, L2 larvae, 4 days after infestation, read-out: control in at least one of the two categories (mortality or growth inhibition)
Procedure: Maize sprouts placed onto an agar layer in 24-well microtiter plates were treated with aqueous test solutions prepared from 10,000 ppm DMSO stock solutions by spraying. After drying, the plates were infested with L2 larvae (6 to 8 per well). The samples were assessed for mortality and growth inhibition in comparison to untreated samples 4 days after infestation.

[9] = test system: Chilo suppressalis (Striped Stem Borer); experiment: Chilo suppressalis larvicide, feeding/contact; details: 120 h, test rate 200 ppm, L2 larvae on sprayed rice plants, 5 days after application
Procedure: Rice plants were treated in a spray chamber, cut off and placed into petri dishes containing wet filter paper. 10 L2 larvae were infested and covered up with a cotton filter and a lid. 5 days after application samples were assessed for mortality.

[10] = test system: Frankliniella occidentalis (Western Flower Thrips); experiment: Frankliniella occidentalis feeding/contact activity; details: foliar, 168 h, application rate 200 ppm, mixed ages on sunflower leaf discs, 7 days after infestation
Procedure: (§2) Sunflower leaf discs were placed on agar in 24-well microtiter plates and sprayed with aqueous test solutions prepared from 10,000 DMSO stock solutions. After drying the leaf discs were infested with a Frankliniella population of mixed ages. The samples were assessed for mortality 7 days after infestation.

[11] = test system: Myzus persicae (Green Peach Aphid); experiment: Myzus persicae systemic activity; details: 144 h, test rate 24 ppm, roots of pea seedlings in test solution, 6 days
Procedure: Roots of pea seedlings infested with an aphid population of mixed ages were placed directly into aqueous test solutions prepared from 10,000 DMSO stock solutions. The samples were assessed for mortality 6 days after placing seedlings into test solutions.

[12] = test system: Myzus persicae (Green Peach Aphid); experiment: Myzus persicae feeding/contact activity; details: foliar, 144 h, application rate 200 ppm, sunflower leaf discs sprayed, 6 days after infestation
Procedure: Sunflower leaf discs were placed onto agar in a 24-well microtiter plate and sprayed with aqueous test solutions prepared from 10,000 ppm DMSO stock solutions. After drying, the leaf discs were infested with an aphid population of mixed ages. The samples were assessed for mortality 6 days after infestation.

[13] = test system: Spodoptera littoralis (Egyptian Cotton Leaf Worm); experiment: Spodoptera littoralis feeding/contact activity; details: foliar, 72 h, application rate 200 ppm, L1 larvae on cotton leaf discs, 3 days after infestation, read-out: control in at least one of the three categories (mortality or growth inhibition or anti-feeding)
Procedure: Cotton leaf discs were placed onto agar in 24-well microtiter plates and sprayed with aqueous test solutions prepared from 10,000 ppm DMSO stock solutions. After drying the leaf discs were infested with five L1 larvae. The samples were assessed for mortality, anti-feeding and growth inhibition 3 days after infestation.

[14] = test system: Myzus persicae (Green Peach Aphid); experiment: Myzus persicae feeding activity (sucrose solution, Parafilm); details: 120 h, test rate 12.5 ppm, in sucrose solution, 5 days after infestation
Procedure: Test compounds prepared from 10,000 ppm DMSO stock solutions were applied by pipette into 24-well microtiter plates and mixed with sucrose solution. The plates were closed with a stretched Parafilm. A plastic stencil with 24 holes was placed onto the plate and infested pea seedlings were placed directly on the Parafilm. The infested plate was closed with a gel blotting paper and another plastic stencil and then turned upside down. The samples were assessed for mortality 5 days after infestation.

[15] = test system: Anopheles stephensi (Indian Malaria Mosquito); experiment: Anopheles stephensi adult contact on treated plates; details: test rate 200 ppm, adult females, mortality assessed at 24 and 48 hours
Procedure: as §1, with “Anopheles stephensi” for “Aedes aegypti”

[16] = test system: Thrips tabaci (Onion thrips); experiment: Thrips tabaci feeding/contact activity; details: foliar, 144 h, application rate 200 ppm, sunflower leaf discs, 6 days after infestation, read-out: control in at least one of the two categories (mortality or anti-feeding)
Procedure: as §2, with “10,000 ppm” for “10,000”, “thrips” for “Frankliniella”, “mortality, and anti-feeding 6” for “mortality 7”

[17] = test system: Aphis craccivora (Black Bean Aphid); experiment: Aphis craccivora mixed population, contact/feeding; details: 120 h, test rate 200 ppm, pea seedlings sprayed, 5 days after treatment
Procedure: Pea seedlings infested with mixed aged aphid population were treated with diluted test solutions in a spray chamber. 5 days after treatment, samples were assessed for mortality.

[18] = test system: Chrysodeixis includens (Soybean Looper); experiment: Chrysodeixis includens larvicide, feeding/contact; details: 120 h, test rate 50 ppm, L2 larvae on soybean leaves, 5 days after infestation, read-out: control in at least one of the two categories (mortality or growth inhibition)
Procedure: Soybean plants were treated in a spray chamber, cut off and placed into petri dishes containing wet filter paper. 1 d after application leaves were infested with 5 L2 larvae and covered with a fabric filter and plastic lids. 5 days after infestation the samples were assessed for mortality and growth inhibition.

[19] = test system: Plutella xylostella (Diamond Back Moth); experiment: Plutella xylostella feeding/contact activity, 24-well artificial diet; details: 192 h, application rate 200 ppm, 24-well artificial diet, 8 days after infestation, read-out: control in at least one of the two categories (mortality or growth inhibition)
Procedure: 24-well microtiter plates with artificial diet were treated with aqueous test solutions prepared from 10,000 ppm DMSO stock solutions by pipetting. After drying, Plutella eggs were pipetted through a plastic stencil onto a gel blotting paper and the plate was closed with it. The samples were assessed for mortality and growth inhibition in comparison to untreated samples 8 days after infestation.

[20] = test system: Spodoptera littoralis (Egyptian Cotton Leaf Worm); experiment: Spodoptera littoralis systemic activity (lettuce); details: 144 h, test rate 12.5 ppm, root uptake in lettuce, 6 days after infestation, read-out: control in at least one of the three categories (mortality or growth inhibition or anti-feeding)
Text: Test compounds were applied by pipette prepared from 10,000 ppm DMSO stock solutions into 24-well plates and mixed with agar. Lettuce seeds were placed onto the agar and the multi well plate was closed by another plate which contained also agar. After 7 days the compound was absorbed by the roots and the lettuce grew into the lid plate. The lettuce leaves were then cut off into the lid plate. Spodoptera eggs were pipetted through a plastic stencil onto a humid gel blotting paper and the lid plate was closed with it. The samples were assessed for mortality, anti-feeding and growth inhibition 6 days after infestation.

Row | SMILES | mortality at 200 ppm [1] [%] | percent control (mortality or growth inhibition) at 200 ppm [2] [%] | percent control (mortality or growth inhibition) at 200 ppm [3] [%] | percent control (mortality or growth inhibition) at 12.5 ppm [4] [%] | percent control (mortality or growth inhibition) at 50 ppm [5] [%] | mortality at 500 ppm [6] [%] | mortality at 12.5 ppm [7] [%] | percent control (mortality or growth inhibition) at 200 ppm [8] [%] | mortality at 200 ppm [9] [%] | mortality at 200 ppm [10] [%] | mortality at 24 ppm [11] [%] | mortality at 200 ppm [12] [%] | percent control (mortality, anti-feedant effect or growth inhibition) at 200 ppm [13] [%] | mortality at 12.5 ppm [14] [%] | mortality at 200 ppm [15] [%] | percent control (mortality, anti-feedant effect or growth inhibition) at 200 ppm [16] [%] | mortality at 200 ppm [17] [%] | percent control (mortality or growth inhibition) at 50 ppm [18] [%] | percent control (mortality or growth inhibition) at 200 ppm [19] [%] | percent control (mortality, anti-feedant effect or growth inhibition) at 12.5 ppm [20] [%]
1 | C#CCN(C(=O)c1cc(C(F)(F)F)cc(C(F)(F)F)c1)C(C)c1ncnn1-c1ncccn1 (stereo not shown) [Compound 2] | ≥ 60 | ≥ 80 | ≥ 80 | ≥ 80 | ≥ 80 | ≥ 80 | ≥ 80 | ≥ 80 | ≥ 80 | ≥ 80 | ≥ 80 | ≥ 80 | ≥ 80 | ≥ 80 | ≥ 60 | ≥ 80 | ≥ 80 | ≥ 80 |  | 
2 | C[C@H](NC(=O)c1cc(C(F)(F)F)cc(C(F)(F)F)c1)c1ncnn1-c1ncccn1 [Compound 17] |  |  | ≥ 80 |  | ≥ 80 | ≥ 80 |  | ≥ 80 | ≥ 80 |  | ≥ 80 | ≥ 80 | ≥ 80 | ≥ 80 |  | ≥ 80 |  | ≥ 80 | ≥ 80 | ≥ 80
3 | CC(c1ncnn1-c1ncccn1)N(CC1CC1)C(=O)c1cc(Cl)cc(OC(F)(F)F)c1 (stereo not shown) [Compound 26] |  | ≥ 80 |  | ≥ 80 | ≥ 80 | ≥ 80 |  | ≥ 80 | ≥ 80 |  |  | ≥ 80 | ≥ 80 | ≥ 80 |  |  |  | ≥ 80 | ≥ 80 | ≥ 80
4 | CCN(C(=O)c1cc(C(F)(F)F)cc(C(F)(F)F)c1)C(C)c1ncnn1-c1ncccn1 (stereo not shown) [Compound 39] |  | ≥ 80 | ≥ 80 | ≥ 80 | ≥ 80 | ≥ 80 |  | ≥ 80 | ≥ 80 |  | ≥ 80 | ≥ 80 | ≥ 80 | ≥ 80 |  | ≥ 80 |  | ≥ 80 | ≥ 80 | ≥ 80
5 | CC(c1ncnn1-c1ccccn1)N(CC1CC1)C(=O)c1cc(C(F)(F)F)cc(C(F)(F)F)c1 (stereo not shown) [Compound 74] |  |  |  | ≥ 80 | ≥ 80 | ≥ 80 |  | ≥ 80 | ≥ 80 |  |  |  | ≥ 80 |  |  |  |  | ≥ 80 | ≥ 80 | ≥ 80
